Consider two molecules from ChEMBL document CHEMBL4145536, “Design, synthesis and biological evaluation of novel bouchardatine analogs as potential inhibitors of adipogenesis/lipogenesis in 3T3-L1 adipocytes” (Eur J Med Chem, 2018).

In data set [1] the test system is 3T3-L1. Briefly: Lipid lowering activity in mouse 3T3L1 cells assessed as decrease in triglyceride level treated 2 days post confluent for 9 days by oil red o-staining based assay. In kind it is functional, cell-based.
Data set [2] has as its system 3T3-L1. As to the kind of experiment: Lipid lowering activity in mouse 3T3L1 cells assessed as inhibition of adipogenesis by measuring decrease in triglyceride level at 5 uM treated on day 0 to 3 starting from 2 days post confluent by oil red o-staining based assay relative to control. In kind it is functional.
For data set [3], the species on record is Mus musculus. Briefly: Activation of AMPK pathway in mouse 3T3L1 cells assessed as reduction in C/EBPdelta protein expression at 5 uM after 4 hrs by Western blot analysis. In kind it is cell-based.
Data set [4] has as its system 3T3-L1. As to the kind of experiment: Cytotoxicity against mouse 3T3L1 cells assessed as decrease in cell viability after 24 hrs by MTT assay. It counts as cell-based. Conditions: 3T3-L1, 24 h. On the technique in general: Tetrazolium dyes change colour on reduction, which living cells bring about.
For data set [5], the species on record is Mus musculus. As to the kind of experiment: Activation of AMPK pathway in mouse 3T3L1 cells assessed as reduction in C/EBPdelta protein expression at 2 mM after 4 hrs by Western blot analysis. It counts as cell-based. On the technique in general: In western blotting, separated proteins are transferred to a membrane and probed.
The subject of data set [6] is 3T3-L1. As to the kind of experiment: Lipid lowering activity in mouse 3T3L1 cells assessed as decrease in triglyceride level at 10 uM for 6 days by oil red o-staining based microscopic assay. It counts as functional, cell-based.
Data set [7] is filed under the species Mus musculus. As to the kind of experiment: Activation of AMPK pathway in mouse 3T3L1 cells assessed as decrease in […] mRNA level measured on day 6 post treatment by RT-PCR method. It counts as cell-based.
The species entered for data set [8] is Mus musculus. Briefly: Activation of AMPK pathway in mouse 3T3L1 cells assessed as decrease in C/EBPgamma mRNA level measured after 24 hrs by RT-PCR method. In kind it is cell-based.
Data set [9] has as its system 3T3-L1. As to the kind of experiment: Cell cycle arrest in mouse 3T3L1 cells assessed as accumulation at G0/G1 phase at 1 uM after 24 hrs by propidium iodide staining based FACS analysis (reference value: 48.7%). It counts as functional. For orientation: Flow cytometry measures light scatter and fluorescence of single cells or particles in a stream.
The species entered for data set [10] is Mus musculus. Briefly: Induction of AMPKalpha phosphorylation at Thr172 residue in mouse 3T3L1 cells measured on day 3 post treatment by Western blot analysis. In kind it is cell-based.
For data set [11], the system named is 3T3-L1. Briefly: Lipid lowering activity in mouse 3T3L1 cells assessed as inhibition of lipogenesis by measuring decrease in triglyceride level at 5 uM treated on day 3 to 6 starting from 2 days post confluent by oil red o-staining based assay relative to control. It counts as functional.
Data set [12] is filed under the species Mus musculus. As to the kind of experiment: Activation of AMPK pathway in mouse 3T3L1 cells assessed as decrease in SREBP-1c mRNA level at 1 to 10 uM measured on day 6 post treatment by RT-PCR method. It counts as cell-based.
The species entered for data set [13] is Mus musculus. As to the kind of experiment: Activation of AMPK pathway in mouse 3T3L1 cells assessed as decrease in C/EBPbeta mRNA level measured after 24 hrs by RT-PCR method. It counts as cell-based.
The subject of data set [14] is 3T3-L1. As to the kind of experiment: Lipid lowering activity in mouse 3T3L1 cells assessed as decrease in triglyceride level at 5 uM treated on day 0 to 9 starting from 2 days post confluent by oil red o-staining based assay relative to control. It counts as functional. The arrangement: scale not given: the % may be the effect or the level left.
The species named for data set [15] is Mus musculus. Briefly: Activation of AMPK pathway in mouse 3T3L1 cells assessed as decrease in FAS mRNA level measured on day 6 post treatment by RT-PCR method. In kind it is cell-based.
Data set [16] relates to 3T3-L1. As to the kind of experiment: Cell cycle arrest in mouse 3T3L1 cells assessed as accumulation at G0/G1 phase at 5 uM after 24 hrs by propidium iodide staining based FACS analysis (reference value: 48.7%). In kind it is functional.
In data set [17] the test system is HepG2. As to the kind of experiment: Cytotoxicity against human HepG2 cells assessed as decrease in cell viability after 24 hrs by MTT assay. The note with it: HepG2, 24 h. In kind it is cell-based.
The subject of data set [18] is 3T3-L1. As to the kind of experiment: Lipid lowering activity in mouse 3T3L1 cells assessed as inhibition of terminal differentiation stage by measuring decrease in triglyceride level at 5 uM treated on day 6 to 9 starting from 2 days post confluent by oil red o-staining based assay relative to control. It counts as functional.
The species named for data set [19] is Mus musculus. Briefly: Activation of AMPK pathway in mouse 3T3L1 cells assessed as decrease in PPARgamma mRNA level at 1 to 10 uM measured on day 3 post treatment by RT-PCR method. In kind it is cell-based.
Data set [20] is filed under the species Mus musculus. Briefly: Activation of AMPK pathway in mouse 3T3L1 cells assessed as decrease in C/EBPalpha mRNA level at 1 to 10 uM measured on day 3 post treatment by RT-PCR method. In kind it is cell-based.
Data set [21] concerns 3T3-L1. As to the kind of experiment: Lipid lowering activity in mouse 3T3L1 cells assessed as decrease in triglyceride level at 5 uM by oil red o-staining based assay. In kind it is functional, cell-based. The note with it: TDE = time-dependent effect.
Data set [22] deals with 3T3-L1. Briefly: Cytotoxicity against mouse 3T3L1 cells assessed as decrease in cell viability up to 10 uM measured up to 72 hrs by LDH release assay. In kind it is cell-based. The note with it: 3t3-l1, 72 h.
The species named for data set [23] is Mus musculus. Briefly: Activation of AMPK pathway in mouse 3T3L1 cells assessed as decrease in SCD1 mRNA level measured on day 6 post treatment by RT-PCR method. In kind it is cell-based.
The species named for data set [24] is Mus musculus. As to the kind of experiment: Activation of AMPK pathway in mouse 3T3L1 cells assessed as reduction in C/EBPbeta protein expression at 5 uM after 4 hrs by Western blot analysis. It counts as cell-based.
Data set [25] is filed under the species Mus musculus. Briefly: Activation of AMPK pathway in mouse 3T3L1 cells assessed as induction of […] phosphorylation at Ser79 residue measured on day 6 post treatment by Western blot analysis. It counts as cell-based.
Data set [26] has as its system 3T3-L1. Briefly: Cell cycle arrest in mouse 3T3L1 cells assessed as decrease in S-phase at 1 to 10 uM after 24 hrs by propidium iodide staining based FACS analysis. It counts as functional.
Data set [27] has as its system 3T3-L1. As to the kind of experiment: Lipid lowering activity in mouse 3T3L1 cells assessed as decrease in triglyceride level at 5 uM treated on day 0 to 6 starting from 2 days post confluent by oil red o-staining based assay relative to control. In kind it is functional. Set-up: scale not given: the % may be the effect or the level left.
For data set [28], the system named is 3T3-L1. As to the kind of experiment: Inhibition of cell proliferation in mouse 3T3L1 cells assessed as reduction in adipogenic cocktail-induced mitotic cell clonal expansion at 1 to 10 uM after 72 hrs by hemocytometric method. It counts as functional, cell-based.
For data set [29], the species on record is Mus musculus. Briefly: Activation of AMPK pathway in mouse 3T3L1 cells assessed as reduction in C/EBPbeta protein expression at 2 mM after 4 hrs by Western blot analysis. It counts as cell-based.
For data set [30], the species on record is Mus musculus. Briefly: Induction of AMPKalpha phosphorylation at Thr172 residue in mouse 3T3L1 cells at 5 uM after 4 hrs by Western blot analysis. In kind it is cell-based.
Data set [31] deals with 3T3-L1. Briefly: Lipid lowering activity in mouse 3T3L1 cells assessed as decrease in triglyceride level at 10 uM for 6 days by oil red o-staining based assay relative to control. In kind it is functional. Set-up: scale not given: the % may be the effect or the level left.
The test system of data set [32] is HepG2. Briefly: Lipid lowering activity in human HepG2 cells assessed as decrease in triglyceride level at 10 uM for 6 days in presence of oleic acid by oil red o-staining based assay relative to control. In kind it is functional. The arrangement: scale not given: the % may be the effect or the level left.
Data set [33] concerns 3T3-L1. As to the kind of experiment: Cell cycle arrest in mouse 3T3L1 cells assessed as accumulation at G0/G1 phase at 10 uM after 24 hrs by propidium iodide staining based FACS analysis (reference value: 48.7%). In kind it is functional.
Data set [34] is described as follows: Solubility of the compound. It counts as physicochemical.

Calls of active or inactive are those of the source. No cut-off for these calls is given here.

With `Fc1c(-c2nc(NCCCN3CCCC3)c3ccccc3n2)[nH]c2ccccc12`, the Activity entry in data set [1] is “Dose-dependent effect”; in [7], “Dose-dependent effect”; in data set [8], “Dose-dependent effect”; in data set [9], 60.8%; in data set [13], “Dose-dependent effect”; in data set [14], 80.5%. The Activity result in data set [15] is “Dose-dependent effect”; in data set [16] it was 66.1%; in data set [21] it was “Tde”; in data set [22], “Non-Toxic”; in data set [23], “Dose-dependent effect”; in data set [27], 74.2%. In addition, the results for the Activity in data set [31], in data set [32] and in data set [33] were 79.1%, 20.8% and 77.6%, respectively. Further, the EC50 in data set [1] is 0.24 µM. Further, the inhibition at 5 µM in data set [2] stood at 71.1%; in data set [11], 51.6%; in [18] it was 22.1%. The outcome in [3], in data set [5], in data set [6], in data set [10], in [12] and in data set [19] was Active. The outcome in data set [20], in data set [24], in data set [25], in data set [26], in data set [29] and in [30] was Active. For the same molecule, the IC50 stood at 37.7 µM in [4] and 25.1 µM in data set [17]. The inhibition result in data set [28] is “Active”.
Take `O=Cc1c(-c2nc3ccccc3c(=O)[nH]2)[nH]c2ccccc12`: the IC50 in data set [4] and in data set [17] was more than 50 µM in each case. In [6], the result was Active. The solubility entry in data set [34] is “Insoluble”. The Activity in data set [31] is 20.1%; in data set [32], 24.1%.

Usually EC50 stands for the concentration needed to bring the measured effect to its halfway point. One may read the inhibition as the percentage by which the read-out fell short of the control. In general, IC50 refers to the concentration that inhibits the measured activity by half.
